Data on five compounds can be found in ChEMBL document CHEMBL1135156, “Synthesis of novel furo, thieno, and benzazetoazepines and evaluation of their cytotoxicity” (Bioorg Med Chem Lett, 2002).

One experiment has as its system HCT-15 (Homo sapiens). Description: Inhibitory activity against HCT-15 colon cell line using sulforhodamine B (SRB) protein assay. In general terms: Sulforhodamine B stains cellular protein and so reports cell mass.
The subject of another experiment is PC-3. Description: Inhibitory activity against PC-3 prostate cell line using sulforhodamine B (SRB) protein assay. Type of experiment: functional, cell-based. The note with it: Homo sapiens.
The test system of another experiment is MCF7. Description: Inhibitory activity against MCF-7 breast cell line using sulforhodamine B (SRB) protein assay. Particulars: Homo sapiens. In kind it is functional, cell-based.
Another experiment concerns U-251. The experiment is described as follows: Inhibitory activity against U251 CNS cell line using sulforhodamine B (SRB) protein assay. The note with it: Homo sapiens. Type of experiment: functional, cell-based.
A further experiment relates to K562. The experiment is described as follows: Iinhibitory activity against K562 leukemia cell line using sulforhodamine B (SRB) protein assay. Type of experiment: functional, cell-based. Particulars: Homo sapiens.
In the next experiment the test system is HCT-15. Description: Inhibitory activity against HCT-15 colon cell line using sulforhodamine B (SRB) protein assay. Type of experiment: functional, cell-based. The note with it: Homo sapiens.

The term IC50 denotes the concentration at which inhibition is half-maximal. The low end stands for greater potency in that assay, the high end for weaker potency in that assay. In the case of `COc1cccc2c1CCCN1C(=O)[C@@H](Oc3ccccc3)[C@]21SC`, the half-inhibitory concentration (IC50) amounted to 19 µM in the experiment with HCT-15 (Homo sapiens); 21 µM in the experiment on PC-3; 33 µM with MCF7; 25 µM with U-251; 23 µM with K562.

For the compound `CS[C@@]12c3cc(C)n(-c4ccc(I)cc4)c3CC(C)(C)CN1C(=O)[C@H]2Oc1ccccc1`, the IC50 in the experiment on HCT-15 is above 100 µM; with PC-3, 87 µM; in the experiment on MCF7, above 100 µM; with U-251 it was 40 µM; with K562, above 100 µM.

`CS[C@@]12c3cc(C)oc3CC(C)(C)CN1C(=O)[C@H]2Oc1ccccc1`: the IC50 in the experiment with HCT-15 was determined as 56 µM; in the experiment on PC-3 it was 53 µM; in the experiment with MCF7 it was 47 µM; in the experiment on U-251, 47 µM; in the experiment with K562 it was 31 µM.

On to `CS[C@@]12c3cc(C)sc3CC(C)(C)CN1C(=O)[C@H]2Oc1ccccc1`, for which the IC50 amounted to 26 µM with HCT-15; 11 µM with PC-3; 41 µM in the experiment with MCF7; 33 µM in the experiment with U-251; 39 µM in the experiment with K562.

Regarding `COc1cccc2c1C(=O)c1c(O)c3c(c(O)c1C2=O)C[C@@](O)(C(=O)CO)C[C@@H]3O[C@H]1C[C@H](N)[C@H](O)[C@H](C)O1` [DOXORUBICIN], the IC50 with HCT-15 came out at 0.23 µM; in the experiment on PC-3, 32 µM; in the experiment with U-251 it was 0.09 µM; with K562 it was 0.28 µM.
